PMC10436550, “Subacute toxicity evaluations of LPM3480392 in rats, a full µ-opioid receptor biased agonist” (Frontiers in Pharmacology, 2023)

System: Sprague Dawley (SD) rats
Test: Organ weight and ratios, 4-week subacute toxicity study
Type: in vivo, rat
Conditions: male rats
Experimental: Complete gross necropsies were conducted on all surviving animals at the end of treatment (the day after the last dosing) and recovery periods. The following selected organs were weighed and evaluated in terms of organ/body or organ/brain weight ratios: brain, kidneys, adrenals, testes, ovaries, uterus, epididymides, thymus, spleen, heart and liver. Paired organs were weighed together. Organ-to-body weight ratio = Organ weight(g)/Body weight(g) × 100%, and Organ-to-brain weight ratio = Organ weight(g)/Brain weight(g) × 100%.

[1] = 0.6 mg/kg/day, End of recovery phase
[2] = 1.2 mg/kg/day, End of dosing phase
[3] = 1.2 mg/kg/day, End of recovery phase
[4] = 2.4 mg/kg/day, End of dosing phase
[5] = 2.4 mg/kg/day, End of recovery phase

Fc1ccc([C@]2(CCNCc3cccc(Cl)c3)CCO[C@]3(CCOC3)C2)nc1 [LPM3480392]
Organ weight, Heart [1]: 1.431 ± 0.112 g | Organ weight, Liver [1]: 9.943 ± 1.685 g | Organ weight, Spleen [1]: 0.774 ± 0.108 g | Organ weight, Thymus [1]: 0.470 ± 0.076 g | Organ-to-body weight ratio, Adrenal gland [1]: 0.013 ± 0.002% | Organ-to-body weight ratio, Brain [1]: 0.534 ± 0.040% | Organ-to-body weight ratio, Epididymis [1]: 0.338 ± 0.036% | Organ-to-body weight ratio, Heart [1]: 0.337 ± 0.020% | Organ-to-body weight ratio, Liver [1]: 2.327 ± 0.250% | Organ-to-body weight ratio, Spleen [1]: 0.182 ± 0.018% | Organ-to-body weight ratio, Thymus [1]: 0.110 ± 0.016% | Organ-to-brain weight ratio, Adrenal gland [1]: 2.52 ± 0.37% | Organ-to-brain weight ratio, Epididymis [1]: 63.42 ± 6.91% | Organ-to-brain weight ratio, Heart [1]: 63.29 ± 4.73% | Organ-to-brain weight ratio, Liver [1]: 441.01 ± 85.94% | Organ-to-brain weight ratio, Spleen [1]: 34.27 ± 5.33% | Organ-to-brain weight ratio, Thymus [1]: 20.83 ± 3.66% | Terminal BW [1]: 425.2 ± 26.4 g | Organ weight, Adrenal gland [2]: 0.052 ± 0.007 g | Organ weight, Brain [2]: 2.015 ± 0.137 g | Organ weight, Epididymis [2]: 1.020 ± 0.040 g | Organ weight, Heart [2]: 1.199 ± 0.140 g | Organ weight, Liver [2]: 7.643 ± 0.801 g | Organ weight, Spleen [2]: 0.703 ± 0.103 g | Organ weight, Thymus [2]: 0.425 ± 0.115 g | Organ-to-body weight ratio, Adrenal gland [2]: 0.017 ± 0.002% | Organ-to-body weight ratio, Brain [2]: 0.655 ± 0.040% | Organ-to-body weight ratio, Epididymis [2]: 0.332 ± 0.030% | Organ-to-body weight ratio, Heart [2]: 0.388 ± 0.025 % | Organ-to-body weight ratio, Liver [2]: 2.473 ± 0.100% | Organ-to-body weight ratio, Spleen [2]: 0.227 ± 0.026% | Organ-to-body weight ratio, Thymus [2]: 0.136 ± 0.028% | Organ-to-brain weight ratio, Adrenal gland [2]: 2.59 ± 0.37% | Organ-to-brain weight ratio, Epididymis [2]: 50.88 ± 4.79% | Organ-to-brain weight ratio, Heart [2]: 59.48 ± 5.54% | Organ-to-brain weight ratio, Liver [2]: 378.95 ± 25.83% | Organ-to-brain weight ratio, Spleen [2]: 35.01 ± 5.62% | Organ-to-brain weight ratio, Thymus [2]: 20.87 ± 4.42% | Terminal BW [2]: 308.5 ± 22.5 g | Organ weight, Adrenal gland [3]: 0.060 ± 0.010 g | Organ weight, Brain [3]: 2.177 ± 0.033 g | Organ weight, Epididymis [3]: 1.351 ± 0.094 g | Organ weight, Heart [3]: 1.483 ± 0.081 g | Organ weight, Liver [3]: 10.423 ± 1.077 g | Organ weight, Spleen [3]: 0.814 ± 0.089 g | Organ weight, Thymus [3]: 0.393 ± 0.042 g | Organ-to-body weight ratio, Adrenal gland [3]: 0.014 ± 0.003% | Organ-to-body weight ratio, Brain [3]: 0.514 ± 0.031% | Organ-to-body weight ratio, Epididymis [3]: 0.318 ± 0.010% | Organ-to-body weight ratio, Heart [3]: 0.349 ± 0.017% | Organ-to-body weight ratio, Liver [3]: 2.451 ± 0.149% | Organ-to-body weight ratio, Spleen [3]: 0.192 ± 0.022% | Organ-to-body weight ratio, Thymus [3]: 0.093 ± 0.013% | Organ-to-brain weight ratio, Adrenal gland [3]: 2.74 ± 0.50% | Organ-to-brain weight ratio, Epididymis [3]: 62.05 ± 4.34% | Organ-to-brain weight ratio, Heart [3]: 68.08 ± 3.40% | Organ-to-brain weight ratio, Liver [3]: 478.76 ± 49.84% | Organ-to-brain weight ratio, Spleen [3]: 37.41 ± 4.09% | Organ-to-brain weight ratio, Thymus [3]: 18.03 ± 1.83% | Terminal BW [3]: 424.6 ± 23.0 g | Organ weight, Adrenal gland [4]: 0.052 ± 0.004 g | Organ weight, Brain [4]: 2.031 ± 0.066 g | Organ weight, Epididymis [4]: 0.904 ± 0.104 g | Organ weight, Heart [4]: 1.172 ± 0.071 g | Organ weight, Liver [4]: 7.348 ± 0.497 g | Organ weight, Spleen [4]: 0.686 ± 0.129 g | Organ weight, Thymus [4]: 0.394 ± 0.075 g | Organ-to-body weight ratio, Adrenal gland [4]: 0.018 ± 0.002% | Organ-to-body weight ratio, Brain [4]: 0.689 ± 0.061% | Organ-to-body weight ratio, Epididymis [4]: 0.305 ± 0.028% | Organ-to-body weight ratio, Heart [4]: 0.397 ± 0.037 % | Organ-to-body weight ratio, Liver [4]: 2.487 ± 0.195% | Organ-to-body weight ratio, Spleen [4]: 0.231 ± 0.033% | Organ-to-body weight ratio, Thymus [4]: 0.132 ± 0.019% | Organ-to-brain weight ratio, Adrenal gland [4]: 2.59 ± 0.24% | Organ-to-brain weight ratio, Epididymis [4]: 44.58 ± 5.64 % | Organ-to-brain weight ratio, Heart [4]: 57.77 ± 3.83% | Organ-to-brain weight ratio, Liver [4]: 361.66 ± 16.84 % | Organ-to-brain weight ratio, Spleen [4]: 33.71 ± 5.76% | Organ-to-brain weight ratio, Thymus [4]: 19.36 ± 3.42% | Terminal BW [4]: 296.6 ± 24.2 g | Organ weight, Adrenal gland [5]: 0.055 ± 0.009 g | Organ weight, Brain [5]: 2.185 ± 0.147 g | Organ weight, Epididymis [5]: 1.239 ± 0.114 g | Organ weight, Heart [5]: 1.360 ± 0.262 g | Organ weight, Liver [5]: 9.451 ± 1.196 g | Organ weight, Spleen [5]: 0.775 ± 0.172 g | Organ weight, Thymus [5]: 0.386 ± 0.038 g | Organ-to-body weight ratio, Adrenal gland [5]: 0.014 ± 0.002% | Organ-to-body weight ratio, Brain [5]: 0.559 ± 0.076% | Organ-to-body weight ratio, Epididymis [5]: 0.315 ± 0.026% | Organ-to-body weight ratio, Heart [5]: 0.342 ± 0.024% | Organ-to-body weight ratio, Liver [5]: 2.391 ± 0.064% | Organ-to-body weight ratio, Spleen [5]: 0.194 ± 0.023% | Organ-to-body weight ratio, Thymus [5]: 0.099 ± 0.013% | Organ-to-brain weight ratio, Adrenal gland [5]: 2.55 ± 0.51% | Organ-to-brain weight ratio, Epididymis [5]: 56.82 ± 5.54% | Organ-to-brain weight ratio, Heart [5]: 62.11 ± 10.37% | Organ-to-brain weight ratio, Liver [5]: 432.91 ± 49.50% | Organ-to-brain weight ratio, Spleen [5]: 35.31 ± 6.72% | Organ-to-brain weight ratio, Thymus [5]: 17.77 ± 2.29% | Terminal BW [5]: 395.7 ± 53.7 g
